Assay results published in patent US12655116B2, “Substituted isophthalic acid diamides” (Bayer Aktiengesellschaft, priority 2020, dated 2026).

Key:
PHBPU = assay: Pre-emergence herbicidal action against PHBPU; format: in vivo, Pharbitis purpurea; conditions: Ipomoea purpurea, 504 h; for pest or weed control at 80 g/ha: dosage 80 g/ha; for pest or weed control at 320 g/ha: dosage 320 g/ha
How it was run: (§1)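 Visual rating at 3 weeks vs untreated pots; 0–100% scale, 100% = plants died. Treatment: aqueous WP/EC spray onto covering soil, 600–800 l/ha, 0.2% wetter, seeds in sandy loam.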

ABUTH = assay: Post-emergence herbicidal action against ABUTH; format: in vivo, Abutilon theophrasti; conditions: Abutilon theophrasti, 504 h, visual assessment about 3 weeks after treatment vs untreated controls; for pest or weed control at 5 g/ha: dosage 5 g/ha; for pest or weed control at 20 g/ha: dosage 20 g/ha; for pest or weed control at 80 g/ha: dosage 80 g/ha
How it was run: (§2)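 Weeds in sandy loam soil received a post-emergence spray at the one-leaf stage. Compounds were applied as WP or EC in water, 600 to 800 l/ha, with 0.2% wetting agent. Activity in % was judged visually after roughly 3 weeks against untreated plants.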

POLCO = assay: Pre-emergence herbicidal action against POLCO; format: in vivo, Polygonum convolvulus; conditions: Fallopia convolvulus, 504 h; for pest or weed control at 80 g/ha: dosage 80 g/ha; for pest or weed control at 320 g/ha: dosage 320 g/ha
How it was run: as §1

VIOTR = assay: Pre-emergence herbicidal action against VIOTR; format: in vivo, Viola tricolor; conditions: Viola tricolor, 504 h; for pest or weed control at 20 g/ha: dosage 20 g/ha; for pest or weed control at 80 g/ha: dosage 80 g/ha; for pest or weed control at 320 g/ha: dosage 320 g/ha
How it was run: as §1

VERPE = assay: Post-emergence herbicidal action against VERPE; format: in vivo, Veronica persica; conditions: Veronica persica, 504 h
How it was run: as §2

CYPES [1] = assay: Pre-emergence herbicidal action against CYPES; format: in vivo; conditions: Cyperus esculentus, 504 h; for pest or weed control at 80 g/ha / pest or weed control at 20 g/ha: scored visually after 3 weeks, 100% = plants have died, 0% = like control plants
From the text: Seeds of monocotyledonous and dicotyledonous weed plants and crop plants are laid out in sandy loam soil in wood-fiber pots and covered with soil. The compounds of the invention, formulated in the form of wettable powders (WP) or as emulsion concentrates (EC), are then applied to the surface of the covering soil in the form of an aqueous suspension or emulsion at a water application rate equivalent to 600 to 800 l/ha, with addition of 0.2% wetting agent. After the treatment, the pots are placed in a greenhouse and kept under good growth conditions for the trial plants. The damage to the test plants is scored visually after a test period of 3 weeks by comparison with untreated controls (herbicidal activity in percent (%): 100% activity=the plants have died, 0% activity=like control plants). […] The tables below illustrate, in an illustrative manner, the post-emergence herbicidal action of the compounds of the invention, the herbicidal activity being stated in percent.

CYPES [2] = assay: Post-emergence herbicidal action against CYPES; format: in vivo, Cyperus esculentus; conditions: visual assessment about 3 weeks after treatment, 100% = plants have died, 0% = like control plants
Description: (§3) Seeds of monocotyledonous and dicotyledonous weed and crop plants are laid out in sandy loam soil in wood-fiber pots, covered with soil and cultivated in a greenhouse under good growth conditions. 2 to 3 weeks after sowing, the test plants are treated at the one-leaf stage. The compounds of the invention, formulated in the form of wettable powders (WP) or as emulsion concentrates (EC), are then sprayed onto the green parts of the plants in the form of an aqueous suspension or emulsion at a water application rate equivalent to 600 to 800 l/ha, with addition of 0.2% wetting agent. After the test plants have been left to stand in the greenhouse under optimal growth conditions for about 3 weeks, the action of the preparations is assessed visually in comparison to untreated controls (herbicidal action in percent (%): 100% activity=the plants have died, 0% activity=like control plants). […] The tables below illustrate, in an illustrative manner, the post-emergence herbicidal action of the compounds of the invention, the herbicidal activity being stated in percent.

harmful plants = assay: Comparative experiments: herbicidal post-emergence action versus compounds known from D1 (WO 2012/028579 A1); format: in vivo; set-up: key to Herbicidal action against ALOMY / Herbicidal action against AVEFA / Herbicidal action against LOLRI / Herbicidal action against MATIN / Herbicidal action against HORMU / Herbicidal action against ECHCG / Herbicidal action against SETVI / Herbicidal action against ABUTH / Herbicidal action against STEME / Herbicidal action against VIOTR / Herbicidal action against AMARE: % herbicidal action: 100 = plants died, 0 = like untreated control; conditions: 5 g a.i./ha
Description: as §3, with “percent. In the experiments that follow, herbicidal action of numerous inventive compounds and the structurally closest compounds known from D1 (WO 2012/028579 A1) were compared under the above-specified conditions by the pre-emergence and post-emergence method. The example numbers given in the tables relate to the compounds disclosed in the respective documents.” for “percent.”

Compound	pest or weed control at 80 g/ha (PHBPU) [%]	pest or weed control at 320 g/ha (PHBPU) [%]	pest or weed control at 5 g/ha (ABUTH) [%]	pest or weed control at 20 g/ha (ABUTH) [%]	pest or weed control at 80 g/ha (ABUTH) [%]	pest or weed control at 80 g/ha (POLCO) [%]	pest or weed control at 320 g/ha (POLCO) [%]	pest or weed control at 20 g/ha (VIOTR) [%]	pest or weed control at 80 g/ha (VIOTR) [%]	pest or weed control at 320 g/ha (VIOTR) [%]	pest or weed control at 80 g/ha (VERPE) [%]	pest or weed control at 80 g/ha (CYPES [1]) [%]	pest or weed control at 320 g/ha (CYPES [1]) [%]	pest or weed control at 20 g/ha (CYPES [1]) [%]	Post-emergence action at 80 g/ha against CYPES in % (CYPES [2]) [%]	pest or weed control at 20 g/ha (VERPE) [%]	Herbicidal action against ALOMY (harmful plants)	Herbicidal action against SETVI (harmful plants)	further results
CCCn1nnnc1NC(=O)c1ccc(C(F)(F)F)c(C(=O)NC)c1Cl [Example 3-129]	90	100	100	100	100	80	100	100	100	100	80	100	100	–	–	–	–	–	pest or weed control at 20 g/ha (PHBPU; dosage 20 g/ha): 80%
CNC(=O)c1c(C(F)(F)F)ccc(C(=O)Nc2nnc(C)o2)c1Cl [Example 6-116]	–	80	90	100	100	–	90	–	100	100	90	100	100	100	–	–	–	–	–
Cn1nnnc1NC(=O)c1ccc(C(F)(F)F)c(C(N)=O)c1Cl [Example 1-338]	–	80	90	90	100	–	80	–	80	100	100	90	100	–	90	–	–	–	Post-emergence action at 20 g/ha against CYPES in % (CYPES [2]; 20 g/ha): 80%
CCCn1nnnc1NC(=O)c1ccc(C(F)(F)F)c(C(N)=O)c1Cl [Example 3-338]	–	100	90	90	100	80	80	–	90	100	90	90	90	–	–	90	–	–	–
CCn1nnnc1NC(=O)c1ccc(C(F)(F)F)c(C(=O)NC)c1Cl [Example 2-129]	90	100	100	100	100	100	100	100	100	100	90	100	100	100	90	80	100	100	pest or weed control at 20 g/ha (POLCO; dosage 20 g/ha): 100%; Herbicidal action against AMARE (harmful plants; AMARE): 100; Herbicidal action against AVEFA (harmful plants; AVEFA): 100; Herbicidal action against HORMU (harmful plants; HORMU): 80; Herbicidal action against MATIN (harmful plants; MATIN): 80
CNC(=O)c1c(C(F)(F)F)ccc(C(=O)Nc2nnnn2C)c1Cl [Example 1-129]	90	100	100	100	100	100	100	100	100	100	100	90	100	90	80	80	90	100	pest or weed control at 5 g/ha (VERPE; 5 g/ha): 80%; Herbicidal action against ABUTH (harmful plants; ABUTH): 100; Herbicidal action against ECHCG (harmful plants; ECHCG): 100; Herbicidal action against STEME (harmful plants; STEME): 100; Herbicidal action against VIOTR (harmful plants; VIOTR): 80
